Values of other authors as cited in patent US8592424B2, “Topical regional neuro-affective therapy” (Afgin Pharma LLC, priority 2008, dated 2013).
Where a name gives a salt, the structure may show the parent alone. Each block holds one molecule with its values, some of them ahead of it.

Legend:
[1] = tested on: patients with advanced Parkinson's disease, "off periods"
[2] = tested on: alpha-adrenergic receptors; conditions: in vitro tests; some alpha-adrenergic receptors
serotonin receptors = conditions: in vitro tests
[3] = tested on: patients, some with impotence with erectile dysfunction; conditions: apomorphine injections, observed and reported
D4 dopamine receptor = D4 dopamine receptor (Homo sapiens, UniProt P21917); conditions: in vitro tests
D4 dopamine receptor, sequence (P21917 whole entry): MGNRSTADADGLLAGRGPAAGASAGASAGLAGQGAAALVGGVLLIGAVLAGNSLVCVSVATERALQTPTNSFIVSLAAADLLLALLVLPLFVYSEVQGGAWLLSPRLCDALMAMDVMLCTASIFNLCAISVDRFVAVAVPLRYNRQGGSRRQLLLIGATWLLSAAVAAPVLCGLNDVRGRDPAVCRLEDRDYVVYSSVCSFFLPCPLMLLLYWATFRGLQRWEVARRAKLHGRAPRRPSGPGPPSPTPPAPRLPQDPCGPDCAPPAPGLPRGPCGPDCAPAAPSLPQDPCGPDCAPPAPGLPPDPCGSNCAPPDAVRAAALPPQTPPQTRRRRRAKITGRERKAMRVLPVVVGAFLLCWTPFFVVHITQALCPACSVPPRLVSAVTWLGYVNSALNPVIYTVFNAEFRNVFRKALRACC

D2 dopamine receptor = D2 dopamine receptor (Homo sapiens, UniProt P14416); conditions: in vitro tests
D2 dopamine receptor, sequence (P14416 whole entry): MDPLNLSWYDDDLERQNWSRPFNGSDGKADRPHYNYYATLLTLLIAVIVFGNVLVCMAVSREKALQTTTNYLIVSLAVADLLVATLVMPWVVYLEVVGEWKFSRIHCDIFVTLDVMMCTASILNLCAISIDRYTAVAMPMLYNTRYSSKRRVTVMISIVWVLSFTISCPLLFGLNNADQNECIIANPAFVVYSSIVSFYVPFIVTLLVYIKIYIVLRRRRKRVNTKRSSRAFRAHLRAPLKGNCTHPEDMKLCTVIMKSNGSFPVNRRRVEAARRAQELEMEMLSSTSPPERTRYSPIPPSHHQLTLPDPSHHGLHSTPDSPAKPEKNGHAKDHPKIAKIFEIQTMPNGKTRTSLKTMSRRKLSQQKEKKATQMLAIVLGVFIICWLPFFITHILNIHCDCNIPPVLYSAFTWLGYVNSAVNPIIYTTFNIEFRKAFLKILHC

D3 dopamine receptor = D3 dopamine receptor (Homo sapiens, UniProt P35462); conditions: in vitro tests
D3 dopamine receptor, sequence (P35462 whole entry): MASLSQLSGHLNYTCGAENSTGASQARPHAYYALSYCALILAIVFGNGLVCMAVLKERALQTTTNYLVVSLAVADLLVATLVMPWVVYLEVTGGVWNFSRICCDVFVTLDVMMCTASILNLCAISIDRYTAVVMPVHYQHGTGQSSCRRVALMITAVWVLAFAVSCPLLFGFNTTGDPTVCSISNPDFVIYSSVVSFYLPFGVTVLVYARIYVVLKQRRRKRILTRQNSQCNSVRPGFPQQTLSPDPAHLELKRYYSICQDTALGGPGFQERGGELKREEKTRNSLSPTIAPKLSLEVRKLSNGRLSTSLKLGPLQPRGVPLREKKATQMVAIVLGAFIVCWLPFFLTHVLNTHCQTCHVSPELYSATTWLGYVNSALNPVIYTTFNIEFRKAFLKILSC

dopamine D1 receptor = dopamine D1 receptor (Homo sapiens, UniProt P21728); conditions: in vitro tests
dopamine D1 receptor, sequence (P21728 whole entry): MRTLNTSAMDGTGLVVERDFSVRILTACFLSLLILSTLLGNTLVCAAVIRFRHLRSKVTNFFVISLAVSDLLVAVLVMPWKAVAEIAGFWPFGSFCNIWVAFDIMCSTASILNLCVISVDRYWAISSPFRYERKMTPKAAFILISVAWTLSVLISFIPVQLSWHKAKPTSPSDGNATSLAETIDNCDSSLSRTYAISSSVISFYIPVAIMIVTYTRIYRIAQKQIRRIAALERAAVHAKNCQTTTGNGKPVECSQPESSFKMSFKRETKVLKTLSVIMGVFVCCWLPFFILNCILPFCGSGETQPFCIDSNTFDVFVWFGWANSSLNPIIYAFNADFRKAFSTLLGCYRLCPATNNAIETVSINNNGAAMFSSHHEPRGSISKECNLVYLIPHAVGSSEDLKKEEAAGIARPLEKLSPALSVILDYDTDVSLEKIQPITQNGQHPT

[4] = reported clinical trials, despite using Tigan

water solubility: high
SMILES: c1cnc2cc3c(cc2n1)[C@@H]1CNC[C@H]3C1 [varenicline]

SMILES: CN1CCc2cccc3c2[C@H]1Cc1ccc(O)c(O)c1-3 [Apomorphine hydrochloride]
other commonly reported adverse events in clinical trials ([1]; oral and injectible forms): dizziness, yawning, somnolence, rhinorrhea, sweating, flushing, pallor, hallucinations, edema, and chest pain
patients experiencing nausea [1, 4]: 31%
patients experiencing vomiting [1, 4]: 11%
time to take effect ([1]; subcutaneous injection, reported): 10 to 15 min
affinity [2]: moderate
affinity (serotonin receptors): low
solubility in water (at 80 degrees Celsius): soluble
effect on sexual function [3]: improvement in sexual function
affinity (D4 dopamine receptor): high
affinity (D2 dopamine receptor): moderate
affinity (D3 dopamine receptor): moderate
affinity (dopamine D1 receptor): low
